In paper PMC8041284, “Tunable Methacrylamides for Covalent Ligand Directed Release Chemistry” (Journal of the American Chemical Society, 2021):
Where two headings read alike, the source gives them in different places.

Molecular target: BTK (Homo sapiens, UniProt Q06187)
Experiment: biochemical
[1] = read-out: BTK inhibition (%), 0.75 uM BTK, […] probe 3l, 15 min preincubation

Chain of BTK (Q06187 402-655 limits assumed): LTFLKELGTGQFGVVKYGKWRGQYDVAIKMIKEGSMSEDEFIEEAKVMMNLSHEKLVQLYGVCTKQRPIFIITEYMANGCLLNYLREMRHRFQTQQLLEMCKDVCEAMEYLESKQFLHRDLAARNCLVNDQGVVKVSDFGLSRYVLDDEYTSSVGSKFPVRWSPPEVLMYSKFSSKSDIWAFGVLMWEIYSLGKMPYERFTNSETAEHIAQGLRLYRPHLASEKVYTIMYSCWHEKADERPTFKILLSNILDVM

Row | Structure (SMILES) | inhibition at 10 µM [1] [%] | inhibition at 10 µM (read-out: BTK inhibition (%)) [%]
1 | CCCC(=O)Nc1ncnc2c1ncn2[C@@H]1O[C@@H]2COP(=O)(O)O[C@H]2[C@H]1OC(=O)CCC [PCM-0215503] | 4.6 | 
2 | Cc1cc(=O)oc2c(C=O)c(O)ccc12 [PCM-0215276] | 82.6 | 
3 | O=C(C[C@H]1NCCC[C@@H]1O)Cn1cnc2cc(Br)c(Cl)cc2c1=O [PCM-0102069] | 0 | 
4 | C=C1C(=O)O[C@H]2[C@H]1CC/C(C)=C/CC[C@@]1(C)O[C@@H]21 [PCM-0214682] | 18.7 | 
5 | CCCCCCCCCCCCCCCC(=O)O[C@@H]1[C@@H](O)[C@@H](O)[C@@H]([C@H](NC(=O)[C@@H]2C[C@@H](CCC)CN2C)[C@H](C)Cl)O[C@@H]1SC [PCM-0215167] | 73.2 | 
6 | Cc1nn(C)c2c1C(c1ccc(C(F)(F)F)cc1)C(C#N)=C(N)O2 (stereo not drawn) [PCM-0215442] | -6.9 | 
7 | c1ccc(-c2ccc(C(c3ccccc3)n3ccnc3)cc2)cc1 (stereo not drawn) [PCM-0086296] | 33.5 | 
8 | O=C1CCC[C@@H]2[C@H]3CCCN4CCC[C@@H](CN12)[C@@H]34 [PCM-0094866] | 11.7 | 
9 | CC(C)[C@H](C)[C@@H](O)[C@H](O)[C@@H](C)[C@H]1CC[C@H]2[C@@H]3COC(=O)[C@H]4C[C@H](O)[C@H](O)C[C@]4(C)[C@H]3CC[C@]12C [PCM-0215160] | -10.1 | 
10 | CCCNS(=O)(=O)Nc1ncnc(OCCOc2ncc(Br)cn2)c1-c1ccc(Br)cc1 [PCM-0095633] | 10 | 
11 | C=C1/C(=C\C=C2/CCC[C@]3(C)[C@@H]([C@H](C)CCCC(C)C)CC[C@@H]23)C[C@@H](O)C[C@@H]1O [PCM-0086012] | -3.1 | 
12 | Cc1coc2c1C(=O)C(=O)c1c-2ccc2c1CCCC2(C)C [PCM-0091329] | 16.3 | 
13 | Oc1ccc(CC2NCCc3cc(O)c(O)cc32)cc1 (stereo not drawn) [PCM-0214948] | -5.4 | 
14 | Clc1ccc(C2(c3ccc(-c4cn[nH]c4)cc3)CCNCC2)cc1 [PCM-0095120] | 6.9 | 
15 | CC(C)NCC(O)c1ccccc1Cl (stereo not drawn) [PCM-0214757] | 10.9 | 
16 | CCN1C[C@]2(COC)CC[C@H](OC)[C@]34C1[C@H](C[C@H]23)[C@@]1(O)C[C@H](OC)[C@H]2C[C@@H]4[C@@H]1[C@H]2O [PCM-0216478] |  | 10.8
17 | COc1cc2c(Oc3ccc4[nH]c(C)cc4c3F)ncnc2cc1OCCCN1CCCC1 [PCM-0094913] | 33.8 | 
18 | CCc1cc(/C(C)=N/OCc2ccc(C3CCCCC3)c(C(F)(F)F)c2)ccc1CN1CC(C(=O)O)C1 [PCM-0215423] | -62.8 | 
19 | Cc1ccc(C=C2C(=O)C3(C)CCC2C3(C)C)cc1 (stereo not drawn) [PCM-0214882] | 5.4 | 
20 | COc1ccc2[nH]cc(CCNC(C)=O)c2c1 [PCM-0065583] | 11.7 | 
21 | COc1cccc(Nc2c(C(N)=O)cnc3c(C)cc(S(=O)(=O)c4cccc(C(=O)N(C)C)c4)cc23)c1 [PCM-0095466] | 0 | 
22 | CS(=O)(=O)n1cc2c(n1)CN([C@H]1CO[C@H](c3cc(F)ccc3F)[C@@H](N)C1)C2 [PCM-0215833] | 4.6 | 
23 | Cc1noc(NS(=O)(=O)c2ccc(N)cc2)c1C [PCM-0085967] | 10.9 | 
24 | CC(C)(C)S(=O)(=O)c1ccc2nccc(Nc3n[nH]c4ccc(F)cc34)c2c1 [PCM-0213348] | 26.2 | 
25 | CC(=O)N[C@@H](CS)C(=O)O [PCM-0064400] | 5.5 | 
26 | Cc1cnc(C(=O)NCCc2ccc(S(=O)(=O)NC(=O)NC3CCCCC3)cc2)cn1 [PCM-0065278] | 13.2 | 

Row | Structure (SMILES) | inhibition at 10 µM [1] [%] | inhibition at 10 µM (read-out: BTK inhibition (%)) [%]
27 | O=C(O)c1ccc(N2C(=O)/C(=C/c3ccc(-c4ccc([N+](=O)[O-])cc4)o3)C=C2c2ccccc2)cc1 [PCM-0095764] | 98.1 | 
28 | C=CC(=O)N1CC(N2CCN(C(=O)CNc3cc(C4(C)CC4)c(Cl)cc3O)CC2)C1 [PCM-0215823] | -9.3 | 
29 | NC(Cc1c[nH]c2ccc(O)cc12)C(=O)O (stereo not drawn) [PCM-0094825] | -2.3 | 
30 | O=C(Oc1cccc(F)c1OC(=O)c1cccc(O)c1)c1cccc(O)c1 [PCM-0215618] | -5.4 | 
31 | COCCCN1CCC(NC(=O)c2cc(Cl)c(N)c3c2OCC3)CC1 [PCM-0095543] | -16.3 | 
32 | NC1CCC(N[C@@H]2C[C@H]2c2ccccc2)CC1 (stereo partly drawn) [PCM-0215562] | 13.1 | 
33 | COc1cc2c(cc1OC)-c1c(C)c3ccc(OC)c(OC)c3c[n+]1CC2 [PCM-0216326] | 0 | 
34 | C#C[C@]1(O)CC[C@H]2[C@@H]3CCC4=CC(=O)CC[C@@H]4[C@H]3C(=C)C[C@@]21CC [PCM-0214842] | 3.1 | 
35 | COC(=O)c1ccc2c(C(=Nc3ccc(N(C)C(=O)CN4CCN(C)CC4)cc3)c3ccccc3)c(O)[nH]c2c1 [PCM-0094897] | 22.1 | 
36 | C1=Cc2ccccc2Nc2ccccc21 [PCM-0215149] | 4.7 | 
37 | NC(=O)c1noc([C@H](CCCC2CCCCC2)CC(=O)NO)n1 [PCM-0095693] | 10.1 | 
38 | O=C(O)c1c[nH]c2cc(Cl)c(-c3ccc(C4(O)CCC4)cc3)cc12 [PCM-0215881] | 24.7 | 
39 | Cc1ccc([N+](=O)[O-])cc1S(=O)(=O)N(C)/N=C/c1cnc2ccc(Br)cn12 [PCM-0094904] | 13.6 | 
40 | CN1c2ccccc2C(NCCCCCCC(=O)O)c2ccc(Cl)cc2S1(=O)=O (stereo not drawn) [PCM-0095097] |  | -13.2
41 | CC(=O)OC(CC(=O)O)C[N+](C)(C)C (stereo not drawn) [PCM-0216588] | -18.5 | 
42 | Cc1cc(Nc2cc(CN3CCOCC3)c3nc(C)c(Cc4ccc(Cl)cc4F)n3n2)n[nH]1 [PCM-0095222] | 56.6 | 
43 | COC(=O)c1ccco1 [PCM-0216224] | -23.9 | 
44 | O=C(NC[C@H]1CN(c2ccc(N3CCOCC3=O)cc2)C(=O)O1)c1ccc(Cl)s1 [PCM-0095448] | 4.7 | 
45 | CNC(=O)c1cccc(-c2ccc3c(N4CCOC[C@@H]4C)nc(N4CCOC[C@@H]4C)nc3n2)c1 [PCM-0095362] | -2.8 | 
46 | Nc1[nH]c(=O)ncc1Br [PCM-0216584] | 8.5 | 
47 | O=C(O)c1ccc(Cl)cc1O [PCM-0214870] | -10.9 | 
48 | C[C@]12CC[C@H]3[C@@H](CC=C4CC(O)CC[C@@]43C)[C@@H]1CC[C@@H]2C(O)CC(O)(C(F)(F)F)C(F)(F)F (stereo partly drawn) [PCM-0215756] | 11.6 | 
49 | O=C(O)CCCN1CCC(O[C@@H](c2ccc(Cl)cc2)c2ccccn2)CC1 [PCM-0214802] | -17.9 | 
50 | CCN(CC)CCOC(=O)C(c1ccccc1)c1ccccc1 [PCM-0085916] | -7.8 | 
51 | Cc1c(Nc2ncccc2C(=O)O)cccc1C(F)(F)F [PCM-0086423] | -9 | 
52 | N#C[C@@H]1C[C@@H]2C[C@@H]2N1C(=O)[C@@H](N)C12CC3CC(CC(O)(C3)C1)C2 [PCM-0095098] | -22.6 | 

Row | Structure (SMILES) | inhibition at 10 µM [1] [%] | inhibition at 10 µM (read-out: BTK inhibition (%)) [%]
53 | O=C(NCCCNc1nc(Nc2cccc(CN3CCOCC3)c2)ncc1C1CC1)C1CCC1 [PCM-0215642] | 21.6 | 
54 | Cc1ccnc(NS(=O)(=O)c2ccc(N)cc2)n1 [PCM-0086511] | 1.6 | 
55 | OC[C@H]1O[C@@H](O[C@H]2[C@H](O)[C@@H](O)C(O)O[C@@H]2CO)[C@H](O)[C@@H](O)[C@@H]1O (stereo partly drawn) [PCM-0215689] | -3.4 | 
56 | Cc1cccc(Cc2cnc[nH]2)c1C [PCM-0095257] | -20.2 | 
57 | CC(C)=C[C@H]1C[C@](C)(O)[C@@H]2[C@H]3CC[C@@H]4[C@@]5(C)CC[C@H](O[C@@H]6OC[C@H](O)[C@H](O[C@@H]7O[C@H](CO)[C@@H](O)[C@H](O)[C@H]7O[C@@H]7OC[C@@H](O)[C@H](O)[C@H]7O)[C@H]6O[C@@H]6O[C@@H](C)[C@H](O)[C@@H](O)[C@H]6O)C(C)(C)[C@@H]5CC[C@@]4(C)[C@@]34CO[C@@]2(C4)O1 [PCM-0216470] | 10 | 
58 | CCN1CCN(c2cc3c(cc2F)c(=O)c(C(=O)O)cn3C2CC2)CC1 [PCM-0090392] | -11.9 | 
59 | CCCN(CCC)S(=O)(=O)c1ccc(C(=O)O)cc1 [PCM-0086122] | -4.7 | 
60 | CNC(=O)c1c(C)oc2cc(Oc3ncnc4cc(OC)c(OC)cc34)ccc12 [PCM-0216648] | 1.4 | 
61 | O=C1NC(=NCc2cccs2)S/C1=C\c1ccc2ncccc2c1 [PCM-0215455] | -9 | 
62 | NC(N)=NC(N)=NCCc1ccccc1 [PCM-0085798] | 4.1 | 
63 | O=C[C@H](O)[C@@H](O)[C@H](O)CO [PCM-0214661] | -12.5 | 
64 | CC1(C)S[C@@H]2[C@H](NC(=O)C(c3ccccc3)S(=O)(=O)O)C(=O)N2[C@H]1C(=O)O (stereo partly drawn) [PCM-0216099] | 7.7 | 
65 | CN(C(=O)CNC(=O)/C=C/c1cccc(Cl)c1)C1CCS(=O)(=O)CC1 [PCM-0215630] | -13.9 | 
66 | CCCCCCNC(=O)n1cc(F)c(=O)[nH]c1=O [PCM-0065487] | -7 | 
67 | O=C1c2ccccc2C(=O)c2c1ccc(O)c2O [PCM-0095289] | 49.8 | 
68 | CC[C@@H]1C(=O)N(C)c2cnc(Nc3ccc(C(=O)NC4CCC(N5CCN(CC6CC6)CC5)CC4)cc3OC)nc2N1C(C)C (stereo partly drawn) [PCM-0095279] | -14.5 | 
69 | Nc1ncnc2c1nc(Br)n2[C@@H]1O[C@@H]2COP(=O)(O)O[C@H]2[C@H]1O [PCM-0215506] | 1.5 | 
70 | CCN=C1N[C@@H]2[C@@H](O)[C@H](O)[C@@H](CO)O[C@@H]2S1 [PCM-0215232] | 3.1 | 
71 | COc1cc(O)c2c(=O)cc(-c3ccc(O)c(O)c3)oc2c1 [PCM-0216461] | 61 | 
72 | COc1ncc(-c2cc(-c3ncc(CN4C[C@@H](C)O[C@@H](C)C4)o3)c3cn[nH]c3c2)cc1NS(C)(=O)=O [PCM-0213408] | 6.2 | 
73 | CNc1cc(-c2cccc(Cl)c2Cl)nc(N)n1 [PCM-0215511] | -13.1 | 
74 | CC1=C(/C=C/C(C)=C/C=C/C(C)=C/C=C/C=C(C)/C=C/C=C(C)/C=C/C2=C(C)C(=O)[C@@H](O)CC2(C)C)C(C)(C)C[C@H](O)C1=O [PCM-0214960] | 16.6 | 
75 | CCCCCC(=O)O[C@]1(C(C)=O)CC[C@H]2[C@@H]3CCC4=CC(=O)CC[C@]4(C)[C@H]3CC[C@@]21C [PCM-0214832] | -23.3 | 
76 | COc1ccc([C@@H]2CC(=O)c3c(O)cc(O)cc3O2)cc1O [PCM-0091279] | -11.7 | 
77 | CC1CNC(=O)NC1=O (stereo not drawn) [PCM-0214881] | -4.7 | 
78 | Cc1ccc(-n2nc(C(C)(C)C)cc2NC(=O)Nc2ccc(OCCN3CCOCC3)c3ccccc23)cc1 [PCM-0095136] | 9.7 | 
